pIC50: −log10 of the molar value. Activity calls are given as the source filed them. The rule behind the calls is not given here.
What was measured:
MDA-MB-231 [1] = assay: Induction of apoptosis in human MDA-MB-231 cells assessed as necrotic cells at 0.1 uM incubated for 24 hrs by Annexin V-FITC/PI staining based flow cytometry (reference value: 0.07 %); assay type: functional
[2] = Toxicity in Balb/c nude mouse assessed as animal mortality at 60 mg/kg, ip bid for 14 days consecutively; assay type: organism-based; conditions: in vivo, 336 h, time 14 day
[3] = Toxicity in Balb/c nude mouse assessed as histopathological change in lung at 60 mg/kg, ip bid for 14 days consecutively; assay type: organism-based; conditions: in vivo, 336 h, time 14 day
MDA-MB-231 [4] = assay: Induction of apoptosis in human MDA-MB-231 cells assessed as early apoptotic cells at 1.6 uM incubated for 24 hrs by Annexin V-FITC/PI staining based flow cytometry (reference value: 1.16 %); assay type: functional
MDA-MB-231 [5] = assay: Induction of apoptosis in human MDA-MB-231 cells assessed as early apoptotic cells at 0.1 uM incubated for 24 hrs by Annexin V-FITC/PI staining based flow cytometry (reference value: 1.16 %); assay type: functional
HCC1806 [6] = assay: Induction of apoptosis in human HCC1806 cells assessed as viable cells at 1.6 uM incubated for 24 hrs by Annexin V-FITC/PI staining based flow cytometry (reference value: 98.95 %); assay type: functional; conditions: read-out: Activity
HCC1806 [7] = assay: Antitumor activity against human HCC1806 cells xenografted in Balb/c mouse assessed as reduction in tumor volume at 40 to 60 mg/kg, ip bid measured after 14 days; assay type: functional, organism-based; conditions: dose 40-60 mg/kg, time 14.0 day
HCC1806 [8] = assay: Downregulation of CUL5 level in human HCC1806 cells at 0.1 to 0.4 uM incubated for 24 hrs by Western blot analysis; assay type: functional, cell-based; conditions: dose 0.1-0.4 µM
HCC1806 [9] = assay: Induction of apoptosis in human HCC1806 cells assessed as viable cells at 0.4 uM incubated for 24 hrs by Annexin V-FITC/PI staining based flow cytometry (reference value: 98.95 %); assay type: functional; conditions: read-out: Activity
MDA-MB-231 [10] = assay: Induction of apoptosis in human MDA-MB-231 cells assessed as late apoptotic cells at 0.1 uM incubated for 24 hrs by Annexin V-FITC/PI staining based flow cytometry (reference value: 1.23 %); assay type: functional
MDA-MB-231 [11] = assay: Induction of apoptosis in human MDA-MB-231 cells assessed as early apoptotic cells at 0.8 uM incubated for 24 hrs by Annexin V-FITC/PI staining based flow cytometry (reference value: 1.16 %); assay type: functional
[12] = target: Tyrosine-protein kinase JAK2 (Homo sapiens, UniProt O60674); assay: Induction of JAK2 degradation in Carfilzomib-treated human HCC1806 cells at 0.4 uM incubated for 24 hrs by Western blot analysis; assay type: cell-based
HCC1806 [13] = assay: Induction of apoptosis in human HCC1806 cells assessed as late apoptotic cells at 0.8 uM incubated for 24 hrs by Annexin V-FITC/PI staining based flow cytometry (reference value: 0.23 %); assay type: functional
[14] = Half life in Sprague-Dawley rat at 4 mg/kg, ip; assay type: ADME, organism-based; conditions: in vivo
HCC1806 [15] = assay: Antitumor activity against human HCC1806 cells xenografted in Balb/c mouse assessed as decrease in STAT3 level at 40 to 60 mg/kg, ip bid measured after 14 days by immunofluorescence based analysis; assay type: functional, organism-based; conditions: dose 40-60 mg/kg, time 14.0 day
HCC1806 [16] = assay: Anti-proliferative activity against human HCC1806 cells assessed as cell survival; assay type: functional; conditions: dose < 0.4 µM; time 24 hrs
MDA-MB-231 [17] = assay: Induction of apoptosis in human MDA-MB-231 cells assessed as decrease in JAK2 level by Western blot analysis; assay type: functional, cell-based; conditions: dose 0.1-0.4 µM
HCC1806 [18] = assay: Induction of apoptosis in human HCC1806 cells assessed as ROS production rate at 0.4 uM incubated for 24 hrs by DCFH-DA staining based flow cytometry (reference value: 0.23 %); assay type: functional
MDA-MB-231 [19] = assay: Anti-proliferative activity against human MDA-MB-231 cells assessed as reduction in EdU-positive cells at 0.2 uM; assay type: functional, cell-based
HCC1806 [20] = assay: Induction of apoptosis in human HCC1806 cells assessed as necrotic cells at 0.8 uM incubated for 24 hrs by Annexin V-FITC/PI staining based flow cytometry (reference value: 0.15 %); assay type: functional
MDA-MB-231 [21] = assay: Induction of apoptosis in human MDA-MB-231 cells assessed as decrease in STAT3 phosphorylation at Y705 by Western blot analysis; assay type: functional, cell-based; conditions: dose 0.1-0.4 µM
HCC1806 [22] = assay: Induction of apoptosis in human HCC1806 cells assessed as ROS production rate at 0.1 uM incubated for 24 hrs by DCFH-DA staining based flow cytometry (reference value: 0.23 %); assay type: functional
[23] = Cmax in Sprague-Dawley rat at 4 mg/kg, ip; assay type: ADME, organism-based; conditions: in vivo
MCF7 = assay: Anti-proliferative activity against human MCF7 cells assessed as cell growth inhibition incubated for 72 hrs by MTT assay; assay type: functional, cell-based; conditions: MCF7, 72 h
MDA-MB-231 [24] = assay: Induction of apoptosis in human MDA-MB-231 cells assessed as decrease in JAK1 level by Western blot analysis; assay type: functional, cell-based; conditions: dose 0.1-0.4 µM
[25] = AUC (0 to infinity) in Sprague-Dawley rat at 4 mg/kg, ip; assay type: ADME, organism-based; conditions: in vivo
HCC1806 [26] = assay: Induction of apoptosis in human HCC1806 cells assessed as early apoptotic cells at 0.4 uM incubated for 24 hrs by Annexin V-FITC/PI staining based flow cytometry (reference value: 0.67 %); assay type: functional
MDA-MB-231 [27] = assay: Induction of apoptosis in human MDA-MB-231 cells assessed as early apoptotic cells at 0.2 uM incubated for 24 hrs by Annexin V-FITC/PI staining based flow cytometry (reference value: 1.16 %); assay type: functional
HCC1806 [28] = assay: Induction of apoptosis in human HCC1806 cells assessed as decrease in Bcl-2 level by Western blot analysis; assay type: functional, cell-based; conditions: dose 0.1-0.4 µM
HCC1806 [29] = assay: Induction of apoptosis in human HCC1806 cells assessed as viable cells at 0.1 uM incubated for 24 hrs by Annexin V-FITC/PI staining based flow cytometry (reference value: 98.95 %); assay type: functional; conditions: read-out: Activity
HCC1806 [30] = assay: Antitumor activity against human HCC1806 cells xenografted in Balb/c mouse assessed as decrease in Ki67 level at 40 to 60 mg/kg, ip bid measured after 14 days by IHC analysis; assay type: functional, organism-based; conditions: dose 40-60 mg/kg, time 14.0 day
MDA-MB-231 [31] = assay: Induction of apoptosis in human MDA-MB-231 cells assessed as ROS production rate at 0.1 uM incubated for 24 hrs by DCFH-DA staining based flow cytometry (reference value: 0.28 %); assay type: functional
HCC1806 [32] = assay: Inhibition of colony formation in human HCC1806 cells at 0.05 uM measured after 7 days; assay type: functional, cell-based; conditions: time 7.0 day
MDA-MB-231 [33] = assay: Induction of apoptosis in human MDA-MB-231 cells assessed as viable cells at 1.6 uM incubated for 24 hrs by Annexin V-FITC/PI staining based flow cytometry (reference value: 97.54 %); assay type: functional; conditions: read-out: Activity
MDA-MB-231 [34] = assay: Induction of apoptosis in human MDA-MB-231 cells assessed as viable cells at 0.8 uM incubated for 24 hrs by Annexin V-FITC/PI staining based flow cytometry (reference value: 97.54 %); assay type: functional; conditions: read-out: Activity
MDA-MB-231 [35] = assay: Anti-proliferative activity against human MDA-MB-231 cells assessed as cell survival; assay type: functional; conditions: dose < 0.4 µM; time 24 hrs
MDA-MB-231 [36] = assay: Induction of apoptosis in human MDA-MB-231 cells assessed as necrotic cells at 0.8 uM incubated for 24 hrs by Annexin V-FITC/PI staining based flow cytometry (reference value: 0.07 %); assay type: functional

Chain of Tyrosine-protein kinase JAK2 (O60674 whole entry): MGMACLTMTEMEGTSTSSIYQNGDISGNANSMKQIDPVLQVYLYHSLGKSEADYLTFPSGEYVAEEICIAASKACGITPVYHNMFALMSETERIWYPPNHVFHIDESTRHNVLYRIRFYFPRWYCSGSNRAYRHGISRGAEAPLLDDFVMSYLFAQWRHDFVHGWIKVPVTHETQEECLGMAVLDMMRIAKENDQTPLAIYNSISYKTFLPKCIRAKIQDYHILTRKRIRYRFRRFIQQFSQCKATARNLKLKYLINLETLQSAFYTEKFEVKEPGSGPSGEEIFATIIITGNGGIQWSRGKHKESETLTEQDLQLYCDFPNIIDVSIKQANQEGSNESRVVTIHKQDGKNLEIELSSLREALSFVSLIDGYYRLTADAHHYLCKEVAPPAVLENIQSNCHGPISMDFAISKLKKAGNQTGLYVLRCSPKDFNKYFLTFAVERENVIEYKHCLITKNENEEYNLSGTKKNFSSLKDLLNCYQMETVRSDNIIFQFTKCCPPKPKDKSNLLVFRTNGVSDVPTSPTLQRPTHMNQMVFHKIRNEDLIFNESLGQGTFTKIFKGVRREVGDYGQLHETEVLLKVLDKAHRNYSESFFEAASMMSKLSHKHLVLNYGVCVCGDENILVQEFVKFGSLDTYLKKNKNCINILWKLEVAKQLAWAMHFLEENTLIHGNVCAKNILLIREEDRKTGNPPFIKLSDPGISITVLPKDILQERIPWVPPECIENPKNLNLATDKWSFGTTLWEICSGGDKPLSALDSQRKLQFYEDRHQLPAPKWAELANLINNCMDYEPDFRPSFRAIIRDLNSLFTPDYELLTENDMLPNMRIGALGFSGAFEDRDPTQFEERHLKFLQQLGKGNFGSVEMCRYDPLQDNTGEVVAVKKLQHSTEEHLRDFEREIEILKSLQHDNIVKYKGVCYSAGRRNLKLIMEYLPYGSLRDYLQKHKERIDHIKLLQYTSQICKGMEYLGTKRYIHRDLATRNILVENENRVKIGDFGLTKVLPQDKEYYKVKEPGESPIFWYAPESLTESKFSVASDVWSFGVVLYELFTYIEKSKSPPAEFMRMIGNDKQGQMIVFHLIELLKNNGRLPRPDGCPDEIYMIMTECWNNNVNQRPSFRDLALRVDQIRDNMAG

**Q.** For `COc1cc(Nc2cc(F)ccc2C(=O)NCCc2c[nH]c3c(F)ccc(F)c23)cc(OC)c1OC`, which Activity (MDA-MB-231 [1]) is on record?
**A.** 0.19%

**Q.** What about the Activity [2] of the same molecule?
**A.** Non-Toxic

**Q.** What about the Activity [3] of the same molecule?
**A.** Non-Toxic

**Q.** What about the Activity (MDA-MB-231 [4]) of the same molecule?
**A.** 7.55%

**Q.** And the Activity (MDA-MB-231 [5])?
**A.** 1.66%

**Q.** What about the viability at 1.6 µM (HCC1806 [6]) of the same molecule?
**A.** 92.9%

**Q.** What about the Activity (HCC1806 [7]) of the same molecule?
**A.** Active

**Q.** And the Activity (HCC1806 [8])?
**A.** Active

**Q.** And the viability at 0.4 µM (HCC1806 [9])?
**A.** 96%

**Q.** And the Activity (MDA-MB-231 [10])?
**A.** 1.23%

**Q.** What about the Activity (MDA-MB-231 [11]) of the same molecule?
**A.** 3.18%

**Q.** And the Activity [12]?
**A.** Active

**Q.** And the Activity (HCC1806 [13])?
**A.** 1.48%

**Q.** What about the half-life [14] of the same molecule?
**A.** 5.57 h

**Q.** What about the Activity (HCC1806 [15]) of the same molecule?
**A.** Active

**Q.** And the Survival (HCC1806 [16])?
**A.** >80%

**Q.** And the Activity (MDA-MB-231 [17])?
**A.** Active

**Q.** What about the Activity (HCC1806 [18]) of the same molecule?
**A.** 5%

**Q.** And the Activity (MDA-MB-231 [19])?
**A.** Active

**Q.** What about the Activity (HCC1806 [20]) of the same molecule?
**A.** 0.29%

**Q.** What about the Activity (MDA-MB-231 [21]) of the same molecule?
**A.** Active

**Q.** And the Activity (HCC1806 [22])?
**A.** 0.66%

**Q.** And the Cmax [23]?
**A.** 229 ng/mL

**Q.** And the pIC50 (MCF7)?
**A.** 5.84

**Q.** And the Activity (MDA-MB-231 [24])?
**A.** Active

**Q.** And the AUC(0-inf) [25]?
**A.** 1970 ng·h/mL

**Q.** And the Activity (HCC1806 [26])?
**A.** 2.94%

**Q.** And the Activity (MDA-MB-231 [27])?
**A.** 1.99%

**Q.** What about the Activity (HCC1806 [28]) of the same molecule?
**A.** Active

**Q.** What about the viability at 0.1 µM (HCC1806 [29]) of the same molecule?
**A.** 99%

**Q.** And the Activity (HCC1806 [30])?
**A.** Active

**Q.** And the Activity (MDA-MB-231 [31])?
**A.** 0.61%

**Q.** What about the inhibition (HCC1806 [32]) of the same molecule?
**A.** Active

**Q.** And the viability at 1.6 µM (MDA-MB-231 [33])?
**A.** 87.4%

**Q.** What about the viability at 0.8 µM (MDA-MB-231 [34]) of the same molecule?
**A.** 94.6%

**Q.** And the Survival (MDA-MB-231 [35])?
**A.** >80%

**Q.** What about the Activity (MDA-MB-231 [36]) of the same molecule?
**A.** 0.11%

Reference: ChEMBL document CHEMBL5550161, “Discovery of novel small molecules targeting the USP21/JAK2/STAT3 axis for the treatment of triple-negative breast cancer” (Eur J Med Chem, 2024)
